Drawing on PubChem BioAssay (NCI), this text covers TGI for twelve compounds.

Structures are written as SMILES.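 Cultured in 96-well plates, cells were exposed to test compound for 48 hours across five concentrations. TGI denotes the concentration required for complete inhibition of growth.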 Bounds are passed on as bounds.

Among the test systems are MCF7 breast; OVCAR-3 ovarian; A498 renal; SW-620 colon; MDA-N; A549 NSCLC; NCI-H460 lung; MOLT-4 leukemia; MDA-MB-435; NCI-H23 lung; CAKI-1 renal.
Common to all, as to experiment: growth of human tumour cells (NCI), 48 h

As for `O=c1[nH]c(=O)n(CCOc2ccccc2)cc1Nc1ccccc1`, the TGI in the assay on MCF7 breast, in the assay with OVCAR-3 ovarian, in the assay on A498 renal, in the assay on SW-620 colon, in the assay with MDA-N and in the assay on A549 NSCLC was more than 100 µM throughout. Moreover, the TGI in the assay on NCI-H460 lung, in the assay with MOLT-4 leukemia, with MDA-MB-435, with NCI-H23 lung and with CAKI-1 renal was more than 100 µM throughout.
On to `COC(=O)C1=C(O)C(C(=O)OC)[C@]2(O)[C@H](C(=O)OC)[C@H]1C[C@@H](c1ccc(Cl)cc1)[C@H]2C(=O)OC` (some centres not stated), for which the TGI in the assay with MCF7 breast was 24.1 µM; in the assay with OVCAR-3 ovarian, 13.4 µM; with A498 renal, 27.2 µM; in the assay on SW-620 colon, more than 100 µM; in the assay with MDA-N, 22.5 µM; in the assay with A549 NSCLC, 89.5 µM. Besides, the TGI is 49.4 µM with NCI-H460 lung; more than 100 µM in the assay on MOLT-4 leukemia; 25.4 µM with MDA-MB-435; 22.9 µM in the assay with NCI-H23 lung; more than 100 µM with CAKI-1 renal.
With `COC(=O)c1cc(C)ccc1C1CN=NC12Cc1ccc(C)cc1C2=O` (configuration not stated), the TGI was 85.8 µM in the assay on MCF7 breast; more than 100 µM in the assay with OVCAR-3 ovarian; 91.3 µM with A498 renal; more than 100 µM in the assay on SW-620 colon; more than 100 µM with MDA-N; more than 100 µM with A549 NSCLC. Besides, the TGI in the assay on NCI-H460 lung was more than 100 µM; in the assay on MOLT-4 leukemia, 80.6 µM; in the assay with MDA-MB-435, more than 100 µM; in the assay on NCI-H23 lung it was more than 100 µM; in the assay with CAKI-1 renal, more than 100 µM.
Consider `COc1ccccc1NC(=S)Nc1cc(C)cc(C)n1`, for which the TGI with MCF7 breast, in the assay with OVCAR-3 ovarian, with A498 renal, in the assay with SW-620 colon, with MDA-N and in the assay with A549 NSCLC was more than 100 µM throughout. The TGI in the assay on NCI-H460 lung, in the assay on MOLT-4 leukemia, with MDA-MB-435, in the assay on NCI-H23 lung and with CAKI-1 renal was more than 100 µM throughout.
For `CCC/C=C/c1cc2c(cc1O)CC[C@@H]1[C@@H]2CC[C@]2(C)[C@@H](O)CC[C@@H]12`, the TGI in the assay with MCF7 breast is 52.6 µM; in the assay with OVCAR-3 ovarian it was 47 µM; in the assay on A498 renal, 31.8 µM; in the assay on SW-620 colon, 37.4 µM; with MDA-N, 28.3 µM; with A549 NSCLC, 36.9 µM. The TGI came out at 33 µM in the assay with NCI-H460 lung; 42.5 µM in the assay with MOLT-4 leukemia; 32.1 µM in the assay on MDA-MB-435; 35.9 µM with NCI-H23 lung; 41.8 µM in the assay with CAKI-1 renal.
With `CCN(CC)CCn1nc(N)c2nc3ccccc3nc21`, the TGI in the assay with MCF7 breast, in the assay with OVCAR-3 ovarian, in the assay with A498 renal, with SW-620 colon, in the assay with MDA-N and in the assay on A549 NSCLC was more than 100 µM in each case. Besides, the TGI with NCI-H460 lung, with MOLT-4 leukemia, in the assay with MDA-MB-435, in the assay with NCI-H23 lung and with CAKI-1 renal was more than 100 µM each time.
Regarding `C[C@]12CC[C@H](OC(=O)Cc3ccc(N(CCCl)CCCl)cc3)CC1=CC[C@@H]1[C@@H]2CC[C@]2(C)C(=O)CC[C@@H]12`, the TGI with MCF7 breast, in the assay with OVCAR-3 ovarian, in the assay with A498 renal, in the assay with SW-620 colon, with MDA-N and in the assay on A549 NSCLC was more than 100 µM each time. In addition, the TGI in the assay on NCI-H460 lung, with MOLT-4 leukemia, with MDA-MB-435, in the assay on NCI-H23 lung and in the assay on CAKI-1 renal was more than 100 µM throughout.
With `Cc1cc2c(cc1C(=O)CCC(=O)O)CC1(C2)Cc2cc(C)c(C(=O)CCC(=O)O)cc2C1`, the TGI in the assay on MCF7 breast, in the assay on OVCAR-3 ovarian, with A498 renal, with SW-620 colon, in the assay on MDA-N and with A549 NSCLC was more than 100 µM in each case. The TGI in the assay on NCI-H460 lung, in the assay on MOLT-4 leukemia, with MDA-MB-435, with NCI-H23 lung and in the assay on CAKI-1 renal was more than 100 µM throughout.
Turning to `CCOC(=O)C1(Cc2ccccc2)C=CN(C(=O)c2ccccc2)C=C1`, the TGI is more than 100 µM with MCF7 breast; more than 100 µM with OVCAR-3 ovarian; 74.3 µM in the assay on A498 renal; more than 100 µM in the assay on SW-620 colon; 65.2 µM with MDA-N; more than 100 µM in the assay with A549 NSCLC. The TGI in the assay on NCI-H460 lung was more than 100 µM; in the assay with MOLT-4 leukemia, 73.6 µM; in the assay on MDA-MB-435, 90.5 µM; with NCI-H23 lung, more than 100 µM; in the assay with CAKI-1 renal it was more than 100 µM.
Turning to `c1ccc(-c2cn3c(nc4ccccc43)c(-c3ccccc3)n2)cc1`, the TGI is more than 100 µM with MCF7 breast; more than 100 µM with OVCAR-3 ovarian; more than 78.1 µM with A498 renal; more than 100 µM in the assay with SW-620 colon; more than 31.6 µM in the assay with MDA-N; more than 100 µM in the assay with A549 NSCLC. Further, the TGI in the assay with NCI-H460 lung, in the assay on MOLT-4 leukemia, in the assay with MDA-MB-435, in the assay on NCI-H23 lung and in the assay on CAKI-1 renal was more than 100 µM throughout.
For `COc1cc(/C=C2/SC(c3ccccc3)N(c3ccccc3Cl)C2=O)cc(OC)c1OC` (configuration not stated), the TGI in the assay with MCF7 breast is more than 100 µM; in the assay on OVCAR-3 ovarian, more than 100 µM; in the assay with A498 renal it was more than 100 µM; in the assay on SW-620 colon, more than 100 µM; in the assay with MDA-N it was 69.7 µM; in the assay with A549 NSCLC it was more than 100 µM. Besides, the TGI with NCI-H460 lung was more than 100 µM; in the assay with MOLT-4 leukemia, 68.2 µM; with MDA-MB-435 it was more than 100 µM; in the assay on NCI-H23 lung, 81.7 µM; in the assay on CAKI-1 renal, more than 100 µM.
Consider `CC(C)(C)/C(=N\Nc1nc2ccccc2[nH]1)c1ccccn1`, for which the TGI with MCF7 breast is 67.2 µM; in the assay with OVCAR-3 ovarian it was 73.3 µM; with A498 renal it was more than 100 µM; in the assay with SW-620 colon it was more than 100 µM; with MDA-N, more than 100 µM; with A549 NSCLC it was more than 100 µM. Besides, the TGI with NCI-H460 lung, with MOLT-4 leukemia, in the assay on MDA-MB-435, in the assay with NCI-H23 lung and in the assay on CAKI-1 renal was more than 100 µM each time.
